Test results published in ChEMBL document CHEMBL1136572, “Piperazine-based CCR5 antagonists as HIV-1 inhibitors. III: synthesis, antiviral and pharmacokinetic profiles of symmetrical heteroaryl carboxamides” (Bioorg Med Chem Lett, 2003).

Tests used:
[1] = test system: BaF3; test: Inhibition of 0.1 nM of MIP-1beta induced migration of recombinant mouse pro-B cell line BA/F3 expressing human CCR5; assay type: functional, cell-based
[2] = biological target: C-C chemokine receptor type 5 (Homo sapiens, UniProt P51681); test: Ability to inhibit [125I]-labeled RANTES binding to the CCR5 receptor expressed in membrane preparations from CHO cells; assay type: cell membranes
[3] = test system: U-87 MG; test: Compound was tested for inhibiting HIV (ADA) entry into cells; Range is 0.2-2.0 nM; assay type: functional, cell-based, U-87MG ATCC; conditions: Homo sapiens
[4] = biological target: T1, Muscarinic acetylcholine receptor M2 (Homo sapiens, UniProt P08172); test: Binding affinity towards muscarinic receptor M2
T1 sequence (P08172 whole entry): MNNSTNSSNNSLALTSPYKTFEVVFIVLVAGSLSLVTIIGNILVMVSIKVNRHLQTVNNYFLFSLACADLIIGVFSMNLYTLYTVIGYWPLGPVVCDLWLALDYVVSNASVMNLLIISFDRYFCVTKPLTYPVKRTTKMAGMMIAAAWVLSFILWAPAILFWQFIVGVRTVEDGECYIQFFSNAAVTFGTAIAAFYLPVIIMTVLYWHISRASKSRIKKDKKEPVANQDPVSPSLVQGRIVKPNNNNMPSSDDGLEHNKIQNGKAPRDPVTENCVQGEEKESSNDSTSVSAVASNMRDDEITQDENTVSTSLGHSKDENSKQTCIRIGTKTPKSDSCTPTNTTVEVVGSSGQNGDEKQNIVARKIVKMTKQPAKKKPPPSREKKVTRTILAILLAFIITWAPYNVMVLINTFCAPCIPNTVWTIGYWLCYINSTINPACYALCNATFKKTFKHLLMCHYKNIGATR

[5] = test system: U-87 MG; test: Tested for inhibiting HIV (ADA) entry into cells; assay type: functional, cell-based, U-87MG ATCC; conditions: Homo sapiens
[6] = Oral bioavailability evaluated in monkey; assay type: ADME, organism-based; conditions: cercopithecidae, in vivo
[7] = Compound was tested for inhibition of HIV isolate 301657 (wt) in peripheral blood mononuclear cells (PBMC); assay type: functional
[8] = Compound was tested for inhibition of HIV isolate YU-2 (wt) in peripheral blood mononuclear cells (PBMC); assay type: functional
[9] = Compound was tested for inhibition of HIV isolate JV 1083 in peripheral blood mononuclear cells (PBMC); assay type: functional
[10] = Compound was tested for inhibition of HIV isolate ASM 108 (hz) in peripheral blood mononuclear cells (PBMC); assay type: functional
[11] = biological target: T1, Muscarinic acetylcholine receptor M2; test: Inhibition of binding affinity to muscarinic receptor M2
[12] = Cmax value evaluated in rat; assay type: ADME, organism-based; conditions: in vivo
[13] = Compound was tested for inhibition of HIV isolate bal (hz) in peripheral blood mononuclear cells (PBMC); assay type: functional
[14] = Compound was tested for inhibition of HIV isolate ASM 108 (wt) in peripheral blood mononuclear cells (PBMC); assay type: functional
[15] = Ratio of AUCbrain to AUCplasma; assay type: ADME, organism-based; conditions: rat, brain and plasma
[16] = Compound was tested for inhibition of HIV isolate 301657 (hz) in peripheral blood mononuclear cells (PBMC); assay type: functional
[17] = Compound was tested for inhibition of HIV isolate US-1 in peripheral blood mononuclear cells (PBMC); assay type: functional
[18] = Compound was tested for inhibition of HIV isolate BCF01 in peripheral blood mononuclear cells (PBMC); assay type: functional
[19] = Oral bioavailability evaluated in rat; assay type: ADME, organism-based; conditions: in vivo
[20] = Cmax value evaluated in monkey; assay type: ADME, organism-based; conditions: cercopithecidae, in vivo
[21] = Compound was tested for inhibition of HIV isolate YU-2 (hz) in peripheral blood mononuclear cells (PBMC); assay type: functional
[22] = biological target: T2, Muscarinic acetylcholine receptor M1 (Homo sapiens, UniProt P11229); test: Binding affinity towards muscarinic receptor M1
T2 sequence (P11229 whole entry): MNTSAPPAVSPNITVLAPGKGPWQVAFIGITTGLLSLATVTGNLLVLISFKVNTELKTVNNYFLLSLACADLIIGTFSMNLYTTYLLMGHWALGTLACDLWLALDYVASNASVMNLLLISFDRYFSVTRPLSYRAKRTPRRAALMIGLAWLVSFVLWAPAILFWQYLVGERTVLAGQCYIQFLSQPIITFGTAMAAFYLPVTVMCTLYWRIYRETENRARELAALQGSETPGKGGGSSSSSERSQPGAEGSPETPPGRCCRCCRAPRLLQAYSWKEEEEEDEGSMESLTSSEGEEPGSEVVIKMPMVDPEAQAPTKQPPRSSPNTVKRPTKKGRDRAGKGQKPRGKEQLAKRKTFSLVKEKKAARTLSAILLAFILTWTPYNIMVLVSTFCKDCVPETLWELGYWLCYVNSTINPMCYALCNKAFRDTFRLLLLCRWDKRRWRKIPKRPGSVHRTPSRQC

[23] = test system: Rattus norvegicus; test: Dose required for observing CNS and GI effects in rats after peroral administration; assay type: functional
[24] = test system: Rattus norvegicus; test: Dose required for observing cardiovascular effects in rats after peroral administration; assay type: functional, Heart
[25] = test system: U-87 MG; test: Compound was tested for inhibiting HIV (ADA) entry into U-87 cells; range is 2-20 nM; assay type: functional, cell-based, U-87MG ATCC; conditions: Homo sapiens

Chain of C-C chemokine receptor type 5 (P51681 whole entry): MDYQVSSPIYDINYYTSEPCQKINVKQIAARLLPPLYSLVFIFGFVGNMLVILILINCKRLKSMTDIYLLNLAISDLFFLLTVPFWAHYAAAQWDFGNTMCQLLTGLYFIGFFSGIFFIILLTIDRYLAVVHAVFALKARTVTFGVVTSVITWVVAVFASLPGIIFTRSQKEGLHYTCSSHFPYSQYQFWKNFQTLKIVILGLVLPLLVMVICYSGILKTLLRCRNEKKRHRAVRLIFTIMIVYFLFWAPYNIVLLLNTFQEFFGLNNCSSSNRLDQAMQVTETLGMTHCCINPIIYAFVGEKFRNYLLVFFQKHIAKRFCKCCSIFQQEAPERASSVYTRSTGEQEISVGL

With `Cc1ccnc(C)c1C(=O)N1CCC(C)(N2CCN([C@@H](C)c3ccc(C(F)(F)F)cc3)[C@@H](C)C2)CC1` the IC50 [1] was 0.03 nM, the Ki [2] was 2 nM and the IC50 [3] was 0.2 nM.
With `Cc1cncc(C)c1C(=O)N1CCC(C)(N2CCN([C@@H](C)c3ccc(C(F)(F)F)cc3)[C@@H](C)C2)CC1` the Ki [4] was 1680 nM and the Ki [2] was 5.23 nM.
With `Cc1nc(N)nc(C)c1C(=O)N1CCC(C)(N2CCN([C@@H](C)c3ccc(C(F)(F)F)cc3)[C@@H](C)C2)CC1` the Ki [4] was 1100 nM and the Ki [2] was 38 nM.
In the case of `COc1nc(C)c(C(=O)N2CCC(C)(N3CCN([C@@H](C)c4ccc(C(F)(F)F)cc4)[C@@H](C)C3)CC2)c(C)n1`, the Ki [4] is reported as 202 nM and the Ki [2] is reported as 11 nM.
`C[C@H]1CN(C2(C)CCN(C(=O)c3c(Cl)cncc3Cl)CC2)CCN1[C@@H](C)c1ccc(C(F)(F)F)cc1` gave a Ki [4] of 2030 nM, a Ki [2] of 0.7 nM and an IC50 [5] of 0.3 nM.
For `Cc1c[n+]([O-])cc(C)c1C(=O)N1CCC(C)(N2CCN([C@@H](C)c3ccc(C(F)(F)F)cc3)[C@@H](C)C2)CC1`, the Ki [4] was 255 nM, the Ki [2] was 18 nM and the IC50 [5] was 0.9 nM.
Compound `Cc1ncnc(C)c1C(=O)N1CCC(C)(N2CCN([C@@H](C)c3ccc(C(F)(F)F)cc3)[C@@H](C)C2)CC1` has a bioavailability [6] of 50%, an IC50 [7] of 3.2 nM and an IC90 ([7]; Human immunodeficiency virus 1) of 24 nM. The IC50 [8] was 2.3 nM, the IC90 ([8]; Human immunodeficiency virus 1) was 8 nM and the IC50 [9] was 166 nM. It also gave an IC90 ([9]; Human immunodeficiency virus 1) of over 300 nM, an IC50 [10] of 0.2 nM and an IC90 ([10]; Human immunodeficiency virus 1) of 3 nM. It also gave a Ki [11] of 456 nM, a Ki [4] of 456 nM and a Cmax [12] of 1.49 µg/mL. The IC50 [13] was 6.4 nM, the IC90 ([13]; Human immunodeficiency virus 1) was 60 nM and the IC50 [14] was 7 nM. The IC90 ([14]; Human immunodeficiency virus 1) was 17 nM, the Kp [15] was 1.7 and the IC50 [16] was 26.8 nM. It also gave an IC90 ([16]; Human immunodeficiency virus 1) of over 1000 nM, an IC50 [17] of 0.7 nM and an IC90 ([17]; Human immunodeficiency virus 1) of 4 nM. It also gave an IC50 [18] of 200 nM, an IC90 ([18]; Human immunodeficiency virus 1) of over 1000 nM and a bioavailability [19] of 97%. For the same compound, the Cmax [20] was 0.34 µg/mL, the IC50 [21] was 1.3 nM and the IC90 ([21]; Human immunodeficiency virus 1) was 100 nM. It also gave an IC50 [5] of 0.5 nM.
With `Cc1cc[n+]([O-])c(C)c1C(=O)N1CCC(C)(N2CCN([C@@H](C)c3ccc(C(F)(F)F)cc3)[C@@H](C)C2)CC1` the Ki [22] was 350 nM, the Dose [23] was 30 mg/kg and the Dose [24] was 10 mg/kg. It also gave an IC50 [1] of 0.1 nM and an IC50 [25] of 2 nM.
Work on `C[C@H]1CN(C2(C)CCN(C(=O)c3c(Cl)c[n+]([O-])cc3Cl)CC2)CCN1[C@@H](C)c1ccc(C(F)(F)F)cc1` yielded a Ki [4] of 348 nM, a Ki [2] of 2.7 nM and an IC50 [5] of 0.45 nM.
Compound `Cc1nc(C(F)(F)F)nc(C)c1C(=O)N1CCC(C)(N2CCN([C@@H](C)c3ccc(C(F)(F)F)cc3)[C@@H](C)C2)CC1` has a Ki [4] of 613 nM, a Ki [2] of 10 nM and an IC50 [5] of 0.1 nM.
With `Cc1nc(C)c(C(=O)N2CCC(C)(N3CCN([C@@H](C)c4ccc(C(F)(F)F)cc4)[C@@H](C)C3)CC2)c(C)n1` the Ki [4] was 985 nM, the Ki [2] was 10 nM and the IC50 [5] was 1.45 nM.
In the case of `Cc1nc(-c2ccccc2)nc(C)c1C(=O)N1CCC(C)(N2CCN([C@@H](C)c3ccc(C(F)(F)F)cc3)[C@@H](C)C2)CC1`, the Ki [4] is reported as 1230 nM, the Ki [2] is reported as 12 nM and the IC50 [5] is reported as 1.8 nM.
`Cc1ncnc(C)c1C(=O)N1CCC(C)(N2CCN([C@@H](C)c3ccc(C#N)cc3)[C@@H](C)C2)CC1` showed a Ki [4] of 164 nM, a Ki [2] of 20 nM and an IC50 [5] of 1.8 nM.
Compound `Cc1ncnc(C)c1C(=O)N1CCC(C)(N2CCN([C@@H](C)c3ccc(OC(F)(F)F)cc3)[C@@H](C)C2)CC1` has a Ki [4] of 68 nM, a Ki [2] of 11 nM and an IC50 [5] of 1.2 nM.
In the case of `Cc1ncnc(C)c1C(=O)N1CCC(C)(N2CCN([C@@H](C)c3ccc(I)cc3)[C@@H](C)C2)CC1`, the Ki [4] is reported as 169 nM and the Ki [2] is reported as 11 nM.
